Laboratory results: PubChem BioAssay (NCI)
Several values for one entry are separate records, joined by “and”; a condition that tells them apart may be missing. Equal entries are not always repeated.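 Briefly, cells in 96-well plates were exposed to five compound concentrations for 48 h, and endpoints were estimated by linear interpolation. GI50 is the concentration that inhibits growth by half. TGI: concentration producing complete growth inhibition.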

Legend:
Test in all cases: inhibition of tumour cell growth, NCI panel, 48 h
RXF 393 renal = system: RXF 393 renal
SR leukemia = system: SR leukemia
SN12C renal = system: SN12C renal
NCI-H460 lung = system: NCI-H460 lung
HCT-116 colon = system: HCT-116 colon
SK-MEL-5 melanoma = system: SK-MEL-5 melanoma
MALME-3M melanoma = system: MALME-3M melanoma
RPMI-8226 leukemia = system: RPMI-8226 leukemia
HS 578T breast = system: HS 578T breast
SNB-19 CNS = system: SNB-19 CNS

Row | Compound | GI50 (RXF 393 renal) | TGI (RXF 393 renal) | TGI (SR leukemia) | GI50 (SN12C renal) | TGI (SN12C renal) | GI50 (NCI-H460 lung) | TGI (NCI-H460 lung) | GI50 (HCT-116 colon) | TGI (HCT-116 colon) | GI50 (SK-MEL-5 melanoma) | TGI (SK-MEL-5 melanoma) | GI50 (MALME-3M melanoma) | TGI (MALME-3M melanoma) | GI50 (RPMI-8226 leukemia) | TGI (RPMI-8226 leukemia) | GI50 (HS 578T breast) | TGI (HS 578T breast) | GI50 (SNB-19 CNS) | TGI (SNB-19 CNS) | GI50 (SR leukemia)
1 | NC(CSC(c1ccccc1)(c1ccccc1)c1ccccc1)C(=O)O (configuration not stated) | 0.708 µM and 0.454 µM | 22.8 µM and > 100 µM | 19.3 µM and 43.8 µM | 2.99 µM and 0.877 µM | 23.8 µM and 68.3 µM and > 100 µM | 2.07 µM | 21 µM and 15.8 µM | 0.512 µM and 0.425 µM | 55.3 µM and 64.2 µM and > 100 µM | 0.601 µM and 0.41 µM | 51.1 µM and 42.5 µM | 1.33 µM and 5.62 µM | 49.2 µM and 39.2 µM and > 100 µM | 3.53 µM and 0.501 µM | 37.3 µM and 22.4 µM and 20.7 µM | 0.723 µM | 21 µM and 32.4 µM | 2.26 µM and 5.8 µM | 63.9 µM and > 100 µM | –
2 | CN(C)S(=O)(=O)c1cccc(C(=O)Nc2nc(-c3ccc(F)c(F)c3)cs2)c1 | 12.4 µM | > 81.5 µM | > 100 µM | 25.9 µM | > 100 µM | 12.8 µM | > 100 µM | 7.62 µM | > 100 µM | 3.81 µM | > 25.2 µM | 18.6 µM | 99.4 µM | 4.51 µM | > 29.4 µM | 14.2 µM | 91 µM | 35.4 µM | > 100 µM | 6.17 µM
3 | O=CNC(Cc1cnc[nH]1)C(=O)O (configuration not stated) | – | > 100 µM | > 100 µM | – | > 100 µM | – | > 100 µM | – | > 100 µM | – | > 100 µM | – | > 100 µM | – | > 100 µM | – | > 100 µM | – | > 100 µM | –
4 | O=C(O)c1cccc([As]=[As]c2cccc(C(=O)O)c2)c1 (configuration not stated) | – | 81.8 µM | 89.5 µM | – | > 100 µM | – | > 100 µM | – | > 100 µM | – | 96.1 µM | – | 43.9 µM | – | 59.5 µM | – | 90.8 µM | – | > 100 µM | –
5 | CN[C@@H](C)C(=O)N[C@H](C(=O)N1CCC[C@H]1c1nc(C(=O)c2ccc(F)cc2)cs1)C1CCCCC1 | 1.94 µM | 16.3 µM | 38 µM | 39.2 µM | > 100 µM | 27.8 µM | > 72.8 µM | 27 µM | > 95.5 µM | 13.6 µM | 28.7 µM | 4.08 µM | 20 µM | 16.6 µM | 55.4 µM | 19 µM | 74.1 µM | 53.9 µM | > 100 µM | 11.5 µM
6 | O=[N+]([O-])c1ccc(Sc2cccc[n+]2[O-])c2nonc12 | 2.12 µM | 6.32 µM | > 100 µM | 8.04 µM | 22.6 µM | 3.64 µM | 25.2 µM | 1.4 µM | 12.5 µM | 5.72 µM | 18.7 µM | 2.09 µM | 5.34 µM | 2.12 µM | > 100 µM | 3.66 µM | 28.1 µM | 17.1 µM | > 100 µM | 0.703 µM
7 | O=C(CCN1CCCC1)Nc1ccc2c(Nc3ccc(F)cc3)c3ccccc3nc2c1 | 1.23 µM | 2.64 µM | 2.3 µM | 0.523 µM | 2.43 µM | 0.211 µM | 1.38 µM | 0.906 µM | 2.58 µM | 1.53 µM | 2.88 µM | 1.57 µM | 2.99 µM | 0.981 µM | 5.51 µM | 1.74 µM | 4.54 µM | 0.836 µM | 3.53 µM | 0.174 µM
8 | CNc1c2ccccc2nc2occ(Cl)c12 | 19.7 µM | 50.8 µM | 50.6 µM | 52.6 µM | > 100 µM | 21.8 µM | 72.1 µM | 17.1 µM | 40.5 µM | 16.6 µM | 34.8 µM | 25.1 µM | 59.5 µM | 16 µM | 39.8 µM | 20.9 µM | 79.3 µM | 51.6 µM | > 100 µM | 18.3 µM
9 | CN1CCN(C2=C(Cl)C(=O)c3ccccc3C2=O)CC1 | 1.59 µM | 2.95 µM | > 27.3 µM | 1.61 µM | 3.08 µM | 2.95 µM | 9.47 µM | 1.42 µM | 2.75 µM | 1.55 µM | 2.93 µM | 1.81 µM | 3.51 µM | 3.09 µM | 9.61 µM | 1.84 µM | 4.84 µM | 4.08 µM | 15.3 µM | 3.42 µM
10 | CC(NCCN(C)C)C1CCC2C3CCc4cc(O)ccc4C3CCC12C (configuration not stated) | – | 3.69 µM | 3.85 µM | – | 4.42 µM | – | 4.68 µM | – | 7.7 µM | – | 3.29 µM | – | 3.73 µM | – | 7.35 µM | – | 18.1 µM | – | 13.2 µM | –
11 | O=C(O)/C=C/c1c2ccc(=O)c(O)c-2oc2c(O)c(O)ccc12 | – | > 100 µM | > 100 µM | – | 32.3 µM | – | > 100 µM | – | 40 µM | – | > 100 µM | – | > 100 µM | – | 55.9 µM | – | > 100 µM | – | > 100 µM | –
12 | CCCC(=O)Oc1ccc(/C(=C(\C)c2ccc(Cl)cc2)c2ccc(OCCN(CC)CC)cc2)cc1 | 1.72 µM | 3.55 µM | 6.92 µM | 4.55 µM | 18.1 µM | 2.12 µM | 4.4 µM | 1.55 µM | 3.21 µM | 1.75 µM | 3.21 µM | 1.74 µM | 3.55 µM | 2.92 µM | 9.02 µM | 2.68 µM | 9.33 µM | 2.81 µM | 7.29 µM | 1.98 µM
13 | CCc1nc(N)nc(N)c1C#CC(C)c1ccc(-c2ccncc2)cc1Cl (configuration not stated) | 0.141 µM and 0.312 µM | 2.12 µM and 7.44 µM | 2.27 µM and 6.27 µM | 0.0189 µM and 0.148 µM | 5.67 µM and 17.2 µM | < 0.005 µM | – | < 0.005 µM | 2.77 µM and 13 µM | 0.00753 µM and 0.0461 µM | 0.781 µM and 1.98 µM | 0.0378 µM and 0.307 µM | 1.93 µM and 13.1 µM | 0.145 µM and 0.0946 µM | 1.7 µM and 10.8 µM | 0.687 µM and 2.25 µM | 3.47 µM and 19.9 µM | 0.0394 µM and 0.0796 µM | 6.69 µM and 15.2 µM | –
14 | NCC(=O)Nc1ccc(Cl)cc1C(=O)c1ccc[nH]1 | – | > 100 µM | > 100 µM | – | > 100 µM | – | > 100 µM | – | > 100 µM | – | > 100 µM | – | > 100 µM | – | > 100 µM | – | > 100 µM | – | > 100 µM | –
15 | COC(=O)CNC(=O)C(=O)c1c(O)c(O)c(C(C)C)c2cc(C)c(-c3c(C)cc4c(C(C)C)c(O)c(O)c(C(=O)C(=O)NCC(=O)OC)c4c3O)c(O)c12 | 1.85 µM | 8.39 µM | 7.76 µM | 1.97 µM | 8.13 µM | 1.52 µM | 4.57 µM | 1.79 µM | 6.04 µM | 4.29 µM | 11.3 µM | 2.23 µM | 11 µM | 2.72 µM | > 50 µM | 1.83 µM | 8.58 µM | 1.53 µM | 7.92 µM | 1.32 µM
16 | COc1ccc2[nH]c3c(C)c4c(c(C)c3c2c1)CN(C)C=C4 | – | 30.4 µM | 46.3 µM | – | 0.985 µM | – | 11.2 µM | – | 22.1 µM | – | 6.75 µM | – | 3.92 µM | – | 61.9 µM | – | 1.48 µM | – | 3.66 µM | –
